Here are results for two compounds from EP1985629A1, “Pro-apoptotic molecules and therapeutic uses thereof” (UNIVERSITA DEGLI STUDI DI GENOVA, priority 2007, dated 2008).

In data set [1] the test system is peripheral blood lymphocytes (PBL). Briefly: Viability of normal peripheral blood lymphocytes. As to conditions: for ratio of viable cells, treated versus untreated: two pulses at a 48 h interval, four days, mean ± SE. It counts as cell-based, human. As to the method:
The leukemic myelomonocytic cell line U937, the T cell leukaemia cell line Jurkat, the Burkitt lymphoma cell line Namalwa were grown in RPMI 1640 medium supplemented with 10% FBS, 1% sodium pyruvate, 1% non essential aminoacids, 1% penicillin/streptomycin. 2.5·10^4 cells were seeded on 48 wells plates (Corning Costar). The treatment was performed on triplicate wells. Drug concentration ranged from 1 µM up to 30 µM, four treatments every 24 h or two treatments every 48 h were performed. Human peripheral blood lymphocytes obtained from healthy volunteers by venipuncture, were isolated by lymphocyte separation medium (Ficoll) density gradient centrifugation. Mononuclear cells from the interphase were washed twice with PBS and resuspended in RPMI 1640 medium containing 10% FCS, glutamine and antibiotics. Phytohemagglutinin (PHA) was added at 1.5 µg/ml final concentration.
PI uptake tests were performed to assess cell viability. Cells suspended in culture medium were incubated for 5 min with 3 µg/ml PI and analysed by flow cytometry. […] At least 10,000 events were acquired on a logarithmic scale from each sample.
(§1) Bone marrow aspirates from patients with different leukaemia types were plated in tissue culture medium supplemented with 20% FCS, treated with 072RB twice every 48 h, and followed for 4 days. They were evaluated by flow cytometry DNA/SSC analysis, In Table 3 we show the percentage of [early + late apoptotic cells], according to leukaemia type and Int or 072RB dosage. To further study sensitivity to 072RB of normal cells, peripheral blood lymphocytes (PBL) isolated from four independent healthy donors were subjected to a four-days treatment with 10 µM 072RB. Treatment was performed, as usual, with two pulses at a 48 h interval. Lymphocytes were either un-stimulated or activated by PHA. […] Comparing treated and untreated normal peripheral lymphocytes, the ratio of viable cells between the two groups was 0.87 ± 0.05 (mean ± SE) for quiescent lymphocytes and 0.82 ± 0.057 for proliferating lymphocytes. This effect of 072RB on normal lymphocytes seems especially small if we consider the effects observed in leukaemia cell lines (see supplementary information), and also the effects observed in AML cells from ex vivo experiments: 0.55 ± 0.145 (mean ± SE). Table 3: Effect of 072RB on haematological malignancies (AML: acute myeloid leukaemia; ALL: acute lymphoid leukaemia; NBM: normal bone marrow): percentage of early/late apoptotic cells. Mean values from duplicate experiments are reported. The difference between the two individual values never exceeded 15% of the mean value. Ex vivo isolated cells were treated with either Int or 072RB at day 0, 2 (5, 10 µM), at day 0, 1, 2, 3 (1, 3 µM) and analysed after PI staining at day 4.

The nature of data set [2]: Peptides stability in medium with 10% FBS or in 100% FBS (HPLC-MS). It counts as in vitro ADME. As to conditions: 37°C. As to the method: Compounds were added to the medium solution of serum 10% or 100% FBS at the final concentration of 32 µM. Several extraction mixtures were attempted: MeOH; MeOH with 0,1% trifluoroacetic acid (TFA); (H2O: MeOH) 1:1, 1:4, 4;1. A perchloric acid (PCA) protein precipitation protocol was also tried. […] In both cases ice-cold methanol was added to the peptide solution. The mixture was centrifuged and the resulting supernatant was then added with ice-cold methanol (alone or containing 0,1% TFA) at a 1:1 final ratio and this procedure was repeated twice. Before extraction peptides were incubated in 10% FBS or 100% FBS at 37°C and, at different incubation times (0', 6, 24 and 48 hours), a sample of 50 µl was collected to be analyzed by HPLC-MS.

In data set [3] the test system is AML: acute myeloid leukaemia. Kind of data set: Ex vivo bone marrow cells, flow cytometry DNA/SSC analysis of apoptosis. It counts as cell-based, human. As to conditions: for percentage of early/late apoptotic cells: AML, analysed day 4. The procedure:
(§2) For experiments with primary cells of acute lymphoblastic leukaemia (ALL), […] Acute Myeloid Leukaemia (AML), fresh samples of bone marrow aspirates were from patients who had at least 80% blasts among their mononuclear cells. Normal hematopoietic cells (NBM) were obtained from healthy volunteers. Mononuclear cells were isolated from the samples by Ficoll density-gradient centrifugation. Primary cells were cultured as above. The collection of human specimens was performed after informed consent of the patient during diagnostic procedure. Viability was determined by Facs analysis: PI emission fluorescence.
(§3) Cells were harvested and incubated with 30 µg/ml PI (Sigma Chemical Co.) and 0.5 mg/ml RNase for 30 min at room temperature and in the dark. Flow cytometric measurements of Forward Scatter (FSC) and Side Scatter (SSC) of light emitted from the excitation laser, and of PI emission fluorescence, were performed on a FACSCalibur (Becton Dickinson) flow cytometer. At least 10,000 events were acquired on a linear scale from each sample. Frequency distributions of DNA content and SSC were analysed for the evaluation of apoptosis at different apoptotic stages and cell cycle phases, as previously described.
as §1
(In general: Flow cytometry measures light scatter and fluorescence of single cells or particles in a stream.)

Data set [4] relates to ALL: acute lymphoid leukaemia. The data set is described as above. It counts as cell-based, human. Particulars: analysed day 4. As to the method: as §2, §3, §1
Another data set concerns NBM: normal bone marrow. Described as above. It counts as cell-based, human. Particulars: analysed day 4. As to the method: as §2, §3, §1
Data set [5] in a line: Circular dichroism, relative content of secondary structure elements. It counts as physicochemical. Also noted: key to α-Helix / β-Strands / β-Turns / Random: relative content as fraction, from CDSSTR deconvolution. As to conditions: CDSSTR deconvolution. The procedure: Circular dichroism (CD) spectra in the far-UV region (190-260 nm) were collected on a Jasco J-715 spectropolarimeter using a 0.1 cm path-length cuvette. Temperature was kept at 25°C by a Peltier device. Peptide concentration was determined from the absorption of the aromatic residues at 280 nm.
Peptides solutions: Bim-BH3Y and Bim-BH3YA2Aib were suspended in water and potassium hydroxide was added up to complete solubilization. 072RB was dissolved in water. Concentration of stock solutions was about 0.1 mg/ml. For circular dichroism measurements, stock solutions were diluted in 10 mM potassium phosphate buffer, pH 7.
The relative content of secondary structure elements was calculated with the deconvolution program CDSSTR [31] (Table 2). […] 072RB has the highest helical content in the set examined here (0.30 α-helix percent).
For orientation: CD spectra are sensitive to the conformation of chiral molecules.

[6] abbreviates: FAB M0 (control 33), 5 µM at day 0, 2.
Setting [7] is: FAB M0 (control 33), 10 µM at day 0, 2.
Setting [8] is: FAB M3 (control 23), 5 µM at day 0, 2.
The mark [9] stands for this setting: FAB M3 (control 23), 10 µM at day 0, 2.
Where [10] appears, read: ALL, Pro-B (control 32), 5 µM at day 0, 2.
The mark [11] stands for this setting: ALL, Pro-B (control 32), 10 µM at day 0, 2.
Where [12] appears, read: NBM sample with control 15, treated with 15 µM (footnote *), printed in the 10 µM column.
Setting [13] is: NBM sample with control 39, 10 µM at day 0, 2.
Setting [14] is: relative content, 10 mM potassium phosphate buffer, pH 7, 25°C.

Marks after values point to notes of the source that are not given here. Where a SMILES comes first, the peptide text is derived from it. [ ]: non-standard residue; d: D form. Aib = CC(C)(N)C(=O)O

`CC[C@H](C)[C@H](NC(=O)[C@H](CCCNC(=N)N)NC(=O)[C@H](CCCNC(=N)N)NC(=O)[C@H](CC(C)C)NC(=O)[C@H](CCC(=O)O)NC(=O)[C@H](CCC(N)=O)NC(=O)C(C)(C)NC(=O)[C@@H](NC(=O)[C@H](Cc1ccc(O)cc1)NC(=O)[C@@H](NC(=O)[C@H](CCC(=O)O)NC(=O)[C@@H]1CCCN1C(=O)[C@H](CCCNC(=N)N)NC(=O)[C@H](CCSC)NC(=O)[C@@H](N)CC(=O)O)[C@@H](C)CC)[C@@H](C)CC)C(=O)NCC(=O)N[C@@H](CC(=O)O)C(=O)N[C@@H](C)C(=O)N[C@@H](Cc1ccccc1)C(=O)N[C@@H](CC(N)=O)C(=O)NC(C)(C)C(=O)N[C@@H](Cc1ccc(O)cc1)C(=O)N[C@@H](CCCCN)C(=O)N[C@@H](CCCCN)C(=O)N[C@@H](Cc1c[nH]c2ccccc12)C(=O)N[C@@H](CCCCN)C(=O)N[C@@H](CCSC)C(=O)N[C@@H](CCCNC(=N)N)C(=O)N[C@@H](CCCNC(=N)N)C(=O)N[C@@H](CC(N)=O)C(=O)N1CCC[C@H]1C(=O)N[C@@H](Cc1ccccc1)C(=O)N[C@@H](Cc1c[nH]c2ccccc12)C(=O)N[C@H](C(=O)N[C@@H](CCCCN)C(=O)N[C@H](C(=O)N[C@@H](CCC(N)=O)C(=O)N[C@@H](CCCNC(=N)N)C(N)=O)[C@@H](C)CC)[C@@H](C)CC` [Peptide 072RB] (H-DMRPEIYI[Aib]QELRRIGDAFN[Aib]YKKWKMRRNPFWIKIQR-NH2; N-terminus and C-terminus assumed): in data set [1] (normal peripheral lymphocytes, data not reported), the “effect on cell viability and cell proliferation” value was “cytostatic rather than cytotoxic”. Also, the “ratio of viable cells, treated versus untreated” value worked out at 0.82 ± 0.057 in data set [1] (proliferating (PHA activated) lymphocytes, 10 µM); 0.87 ± 0.05 in data set [1] (quiescent lymphocytes, 10 µM); 0.55 ± 0.145 in data set [3] (AML cells from ex vivo experiments, mean ± SE). In addition, in data set [1] (quiescent lymphocytes, 10 µM), the toxicity entry was “quite negligible”. The half-life (as a rule, the time in which the quantity being followed falls by half) at 32 µM in data set [2] (RPMI 1640 medium with 10% fetal bovine serum (FBS), medium (RPMI 1640) with 10% FBS, calculated by linear regression) was 36.5 h; in data set [2] (bovine, 100% fetal bovine serum (FBS), 100% FBS), 17.8 h. For the same compound, the “percentage of early/late apoptotic cells” value is reported as 36 percentage in data set [3] (setting [6]); 42 percentage in data set [3] (setting [7]); 22 percentage in data set [3] (FAB M0-M1 (control 14), 5 µM at day 0, 2); 40 percentage in data set [3] (FAB M0-M1 (control 14), 10 µM at day 0, 2); 66 percentage in data set [3] (FAB M2 (control 24), 5 µM at day 0, 2); 64 percentage in data set [3] (setting [8]). Also, the “percentage of early/late apoptotic cells” value in data set [3] (setting [9]) is recorded as 82 percentage; in data set [3] (FAB M4-M5 (control 50), 5 µM at day 0, 2) it was 75 percentage; in data set [3] (FAB M6 (control 15), 10 µM at day 0, 2), 67 percentage; in data set [4] (ALL sample with control 40, 5 µM at day 0, 2) it was 42 percentage; in data set [4] (ALL sample with control 40, 10 µM at day 0, 2), 45 percentage; in data set [4] (ALL sample with control 43, 5 µM at day 0, 2), 67 percentage. Also, the “percentage of early/late apoptotic cells” value in data set [4] (ALL sample with control 52, 5 µM at day 0, 2) is reported as 60 percentage; in data set [4] (ALL sample with control 52, 10 µM at day 0, 2) it was 80 percentage; in data set [4] (setting [10]) it was 56 percentage; in data set [4] (setting [11]) it was 63 percentage; in the data set with NBM: normal bone marrow (setting [12]) it was 21* percentage; in the data set on NBM: normal bone marrow (setting [13]), 39 percentage. In addition, the “relative content of helices” value in data set [5] is given as 0.30 α-helix percent. The compound also displayed a Random in data set [5] (setting [14]) of 0.42. In data set [5] (setting [14]), this compound showed a α-Helix of 0.30. The β-Strands in data set [5] (setting [14]) amounted to 0.12. For the same compound, the β-Turns in data set [5] (setting [14]) turned out to be 0.15.
Turning to “KKWKMRRNPFWIKIQR [Int, internalisation tag, a modified Q50P 16 aa Antennapedia IIIrd α-helix, reference compound]”, the “percentage of early/late apoptotic cells” value worked out at 32 percentage in data set [3] (setting [6]); 38 percentage in data set [3] (setting [7]); 26 percentage in data set [3] (setting [8]); 28 percentage in data set [3] (setting [9]); 32 percentage in data set [4] (setting [10]); 43 percentage in data set [4] (setting [11]). Further, the “percentage of early/late apoptotic cells” value was 18* percentage with NBM: normal bone marrow (setting [12]) and 37 percentage in the data set with NBM: normal bone marrow (setting [13]).
